Data published in US20230087342A1, “AZEPANE DERIVATIVE” (Nippon Chemiphar Co., Ltd., priority 2019, published 2023).

biological target: T1, human κ opioid receptors (Homo sapiens, UniProt P41145); assay: Opioid receptor function test (Lance Ultra cAMP kit, agonist activity); format: cell-based; settings: CHO cells expressing human κ opioid receptors, 10 μM forskolin, 30 minutes
T1 construct: host or cells: CHO cells
Method in brief: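 CHO cells expressing human κ opioid receptor incubated 30 min with test compound (10^−14 to 10^−7 M) and 10 μM forskolin in HSS/5 mM HEPES pH 7.4 with 0.5 mM IBMX and 0.1% SA. cAMP measured by TR-FRET (Lance Ultra) 1 h after detection reagent addition.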

T1 sequence (P41145 whole entry): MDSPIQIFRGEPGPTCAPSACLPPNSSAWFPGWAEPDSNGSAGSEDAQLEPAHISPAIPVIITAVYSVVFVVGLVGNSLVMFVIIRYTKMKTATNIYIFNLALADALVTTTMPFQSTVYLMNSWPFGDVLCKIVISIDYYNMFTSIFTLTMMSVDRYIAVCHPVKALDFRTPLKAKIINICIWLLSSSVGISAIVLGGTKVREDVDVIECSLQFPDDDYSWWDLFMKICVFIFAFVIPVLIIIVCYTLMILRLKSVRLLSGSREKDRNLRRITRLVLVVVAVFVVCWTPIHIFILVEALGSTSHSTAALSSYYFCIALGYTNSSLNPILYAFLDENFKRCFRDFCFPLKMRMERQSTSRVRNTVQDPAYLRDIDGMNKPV

In order of rising EC50:
1. Cc1cnn([C@H]2CC[C@@H](N3CC[C@]45CCN(CC6CC6)[C@H](Cc6ccc(O)cc64)[C@]5(O)CC3)C2)c1 [Example 236, (5aS,6R,11bS)-14-(cyclopropylmethyl)-3-((1R,3S)-3-(4-methyl-1H-pyrazol-1-yl)cyclopentyl)-2,3,4,5,6,7-hexahydro-6,11b-(epiminoethano)naphtho[1,2-d]azepine-5a,10(1H)-diol]  0.012 nM
2. Oc1ccc2c(c1)[C@@]13CCN(CCn4cc(C(F)(F)F)cn4)CC[C@@]1(O)[C@@H](C2)N(CC1CC1)CC3 [Example 144, (5aS,6R,11bS)-14-(cyclopropylmethyl)-3-(2-(4-(trifluoromethyl)-1H-pyrazol-1-yl)ethyl)-2,3,4,5,6,7-hexahydro-6,11b-(epiminoethano)naphtho[1,2-d]azepine-5a,10(1H)-diol]  0.019 nM
3. CC(C)c1cnn(CCN2CC[C@]34CCN(CC5CC5)[C@H](Cc5ccc(O)cc53)[C@]4(O)CC2)c1 [Example 195, (5aS,6R,11bS)-14-(cyclopropylmethyl)-3-(2-(4-isopropyl-1H-pyrazol-1-yl)ethyl)-2,3,4,5,6,7-hexahydro-6,11b-(epiminoethano)naphtho[1,2-d]azepine-5a,10(1H)-diol]  0.023 nM
4. CC(C)(C)c1cnn(CCN2CC[C@]34CCN(CC5CC5)[C@H](Cc5ccc(O)cc53)[C@]4(O)CC2)c1 [Example 149, (5aS,6R,11bS)-3-(2-(4-(tert-butyl)-1H-pyrazol-1-yl)ethyl)-14-(cyclopropylmethyl)-2,3,4,5,6,7-hexahydro-6,11b-(epiminoethano)naphtho[1,2-d]azepine-5a,10(1H)-diol]  0.023 nM
5. Cn1nc(CC(=O)N2CC[C@]34CCN(CC5CC5)[C@H](Cc5ccc(O)cc53)[C@]4(O)CC2)cc1C(F)(F)F [Example 36, 1-((5aS,6R,11bR)-14-(cyclopropylmethyl)-5a,10-dihydroxy-1,2,5,5a,6,7-hexahydro-6,11b-(epiminoethano)naphtho[1,2-d]azepin-3(4H)-yl)-2-(1-methyl-5-(trifluoromethyl)-1H-pyrazol-3-yl)ethan-1-one]  0.025 nM
6. Cc1cnn(CCN2CC[C@]34CCN(CC5(C)CC5)[C@H](Cc5ccc(O)cc53)[C@]4(O)CC2)c1 [Example 221, (5aS,6R,11bS)-3-(2-(4-methyl-1H-pyrazol-1-yl)ethyl)-14-((1-methylcyclopropyl)methyl)-2,3,4,5,6,7-hexahydro-6,11b-(epiminoethano)naphtho[1,2-d]azepine-5a,10(1H)-diol]  0.034 nM
7. Oc1ccc2c(c1)[C@@]13CCN(CCn4cc5ccccc5n4)CC[C@@]1(O)[C@@H](C2)N(CC1CC1)CC3 [Example 120, (5aS,6R,11bS)-3-(2-(2H-indazol-2-yl)ethyl)-14-(cyclopropylmethyl)-2,3,4,5,6,7-hexahydro-6,11b-(epiminoethano)naphtho[1,2-d]azepine-5a,10(1H)-diol]  0.053 nM
8. Cc1cc2c(cc1O)[C@@]13CCN(C(=O)Cc4n[nH]c5ccccc45)CC[C@@]1(O)[C@@H](C2)N(CC1CC1)CC3 [Example 357, 1-((5aS,6R,11bR)-14-(cyclopropylmethyl)-5a,10-dihydroxy-9-methyl-1,2,5,5a,6,7-hexahydro-6,11b-(epiminoethano)naphtho[1,2-d]azepin-3(4H)-yl)-2-(1H-indazol-3-yl)ethan-1-one]  0.062 nM
9. Oc1ccc2c(c1)[C@@]13CCN(CCc4cc5ccccc5cn4)CC[C@@]1(O)[C@@H](C2)N(CC1CC1)CC3 [Example 123, (5aS,6R,11bS)-14-(cyclopropylmethyl)-3-(2-(isoquinolin-3-yl)ethyl)-2,3,4,5,6,7-hexahydro-6,11b-(epiminoethano)naphtho[1,2-d]azepine-5a,10(1H)-diol]  0.064 nM
10. Oc1ccc2c(c1)[C@@]13CCN(CC4(c5ccccn5)CC4)CC[C@@]1(O)[C@@H](C2)N(CC1CC1)CC3 [Example 108, (5aS,6R,11bS)-14-(cyclopropylmethyl)-3-((1-(pyridin-2-yl)cyclopropyl)methyl)-2,3,4,5,6,7-hexahydro-6,11b-(epiminoethano)naphtho[1,2-d]azepine-5a,10(1H)-diol]  0.066 nM
11. Cc1cnn(CCCN2CC[C@]34CCN(CC5CC5)[C@H](Cc5ccc(O)cc53)[C@]4(O)CC2)c1 [Example 230, (5aS,6R,11bS)-14-(cyclopropylmethyl)-3-(3-(4-methyl-1H-pyrazol-1-yl)propyl)-2,3,4,5,6,7-hexahydro-6,11b-(epiminoethano)naphtho[1,2-d]azepine-5a,10(1H)-diol]  0.066 nM
12. Cc1cnn(C[C@@H](CO)N2CC[C@]34CCN(CC5CC5)[C@H](Cc5ccc(O)cc53)[C@]4(O)CC2)c1 [Example 234, (5aS,6R,11bS)-14-(cyclopropylmethyl)-3-((S)-1-hydroxy-3-(4-methyl-1H-pyrazol-1-yl)propan-2-yl)-2,3,4,5,6,7-hexahydro-6,11b-(epiminoethano)naphtho[1,2-d]azepine-5a,10(1H)-diol]  0.087 nM
13. Cc1cnn(CC(=O)N2CC[C@]34CCN(CC5CC5)[C@H](Cc5ccc(O)cc53)[C@]4(O)CC2)c1 [Example 49, 1-((5aS,6R,11bR)-14-(cyclopropylmethyl)-5a,10-dihydroxy-1,2,5,5a,6,7-hexahydro-6,11b-(epiminoethano)naphtho[1,2-d]azepin-3(4H)-yl)-2-(4-methyl-1H-pyrazol-1-yl)ethan-1-one]  0.089 nM
14. O=C(CCn1cc(C(F)(F)F)cn1)N1CC[C@]23CCN(CC4CC4)[C@H](Cc4ccc(O)cc42)[C@]3(O)CC1 [Example 169, 1-((5aS,6R,11bR)-14-(cyclopropylmethyl)-5a,10-dihydroxy-1,2,5,5a,6,7-hexahydro-6,11b-(epiminoethano)naphtho[1,2-d]azepin-3(4H)-yl)-3-(4-(trifluoromethyl)-1H-pyrazol-1-yl)propan-1-one]  0.094 nM
15. Oc1ccc2c(c1)[C@@]13CCN(CCc4nc5ccccc5s4)CC[C@@]1(O)[C@@H](C2)N(CC1CC1)CC3 [Example 128, (5aS,6R,11bS)-3-(2-(benzo[d]thiazol-2-yl)ethyl)-14-(cyclopropylmethyl)-2,3,4,5,6,7-hexahydro-6,11b-(epiminoethano)naphtho[1,2-d]azepine-5a,10(1H)-diol]  0.1 nM
16. CCC1C[C@@]2(O)[C@H]3Cc4ccc(O)cc4[C@]2(CCN1C(=O)Cc1ccccn1)CCN3CC1CC1 (stereo partly drawn) [Example 347, 1-((5aS,6R,11bR)-14-(cyclopropylmethyl)-4-ethyl-5a,10-dihydroxy-1,2,5,5a,6,7-hexahydro-6,11b-(epiminoethano)naphtho[1,2-d]azepin-3(4H)-yl)-2-(pyridin-2-yl)ethan-1-one]  0.12 nM
17. Cc1cnn(C[C@H](CO)N2CC[C@]34CCN(CC5CC5)[C@H](Cc5ccc(O)cc53)[C@]4(O)CC2)c1 [Example 232, (5aS,6R,11bS)-14-(cyclopropylmethyl)-3-((R)-1-hydroxy-3-(4-methyl-1H-pyrazol-1-yl)propan-2-yl)-2,3,4,5,6,7-hexahydro-6,11b-(epiminoethano)naphtho[1,2-d]azepine-5a,10(1H)-diol]  0.17 nM
18. Cc1cnn(CCC(=O)N2CC[C@]34CCN(CC5CC5)[C@H](Cc5ccc(O)cc53)[C@]4(O)CC2)c1 [Example 220, 1-((5aS,6R,11bR)-14-(cyclopropylmethyl)-5a,10-dihydroxy-1,2,5,5a,6,7-hexahydro-6,11b-(epiminoethano)naphtho[1,2-d]azepin-3(4H)-yl)-3-(4-methyl-1H-pyrazol-1-yl)propan-1-one]  0.26 nM
19. Cc1cn(CCN2CC[C@]34CCN(CC5CC5)[C@H](Cc5ccc(O)cc53)[C@]4(O)CC2)nc1C(F)(F)F [Example 164, (5aS,6R,11bS)-14-(cyclopropylmethyl)-3-(2-(4-methyl-3-(trifluoromethyl)-1H-pyrazol-1-yl)ethyl)-2,3,4,5,6,7-hexahydro-6,11b-(epiminoethano)naphtho[1,2-d]azepine-5a,10(1H)-diol]  0.26 nM
20. Oc1ccc2c(c1)[C@@]13CCN(CCn4ccc(C(F)(F)F)n4)CC[C@@]1(O)[C@@H](C2)N(CC1CC1)CC3 [Example 54, (5aS,6R,11bS)-14-(cyclopropylmethyl)-3-(2-(3-(trifluoromethyl)-1H-pyrazol-1-yl)ethyl)-2,3,4,5,6,7-hexahydro-6,11b-(epiminoethano)naphtho[1,2-d]azepine-5a,10(1H)-diol]  0.36 nM
21. Oc1ccc2c(c1)[C@@]13CCN(CCc4ncccn4)CC[C@@]1(O)[C@@H](C2)N(CC1CC1)CC3 [Example 83, (5aS,6R,11bS)-14-(cyclopropylmethyl)-3-(2-(pyrimidin-2-yl)ethyl)-2,3,4,5,6,7-hexahydro-6,11b-(epiminoethano)naphtho[1,2-d]azepine-5a,10(1H)-diol]  0.37 nM
22. CN(C)CC(=O)N1CC[C@]23CCN(CC4CC4)[C@H](Cc4ccc(O)cc42)[C@]3(O)CC1 [Example 198, 1-((5aS,6R,11bR)-14-(cyclopropylmethyl)-5a,10-dihydroxy-1,2,5,5a,6,7-hexahydro-6,11b-(epiminoethano)naphtho[1,2-d]azepin-3(4H)-yl)-2-(dimethylamino)ethan-1-one]  0.59 nM
23. O=C(Cc1cscn1)N1CC[C@]23CCN(CC4CC4)[C@H](Cc4ccc(O)cc42)[C@]3(O)CC1 [Example 33, 1-((5aS,6R,11bR)-14-(cyclopropylmethyl)-5a,10-dihydroxy-1,2,5,5a,6,7-hexahydro-6,11b-(epiminoethano)naphtho[1,2-d]azepin-3(4H)-yl)-2-(thiazol-4-yl)ethan-1-one]  0.92 nM
24. Cc1cnn(CCN2CC[C@]34CCN(CC5CC5)[C@H](Cc5ccc(O[C@@H]6O[C@H](C(=O)O)[C@@H](O)C(O)[C@H]6O)cc53)[C@]4(O)CC2)c1 (stereo partly drawn) [Example 246, (2S,3S,5R,6S)-6-(((5aS,6R,11bS)-14-(cyclopropylmethyl)-5a-hydroxy-3-(2-(4-methyl-1H-pyrazol-1-yl)ethyl)-1,2,3,4,5,5a,6,7-octahydro-6,11b-(epiminoethano)naphtho[1,2-d]azepin-10-yl)oxy)-3,4,5-trihydroxytetrahydro-2H-pyran-2-carboxylic acid]  2.6 nM
